Six sequences from paper PMC9131871, “Impact of Micropolymorphism Outside the Peptide Binding Groove in the Clinically Relevant Allele HLA-C*14 on T Cell Responses in HIV-1 Infection” (Journal of Virology, 2022) can be followed below.

For the test, the system named is .221-C1402 / .221-C1403 cells pulsed with peptide. Description: ICS assay, peptide-specific bulk T cells against peptide-pulsed .221 cells. Type of test: cell-based, human. The following applies: IFN-γ ICS, 1 μM peptide (autologous allele) or 0.01 to 10 nM (cross-recognition), triplicate assays. The method, then:
To confirm the HLA-C*14-restriction of the T cell responses to the 6 NL4-3-derived peptides, we expanded T cells specific for these peptides by stimulating peripheral blood mononuclear cells (PBMCs) from responders with each peptide (HLA-C*14:02^+ responders for Gag AM9, Pol KM9, and Nef AL9 and HLA-C*14:03^+ responders for Gag LY9, Nef IF8, and Nef YT9). The cultured T cells were then tested for their ability to recognize the peptides presented on 721.221 cells expressing HLA-C*14:02 (.221-C1402 cells) or HLA-C*14:03 (.221-C1403 cells) and 721.221 cells by intracellular cytokine staining (ICS) assay. Both cell lines expressed similarly high levels of HLA-C*14, although the surface expression level of HLA-C*14 on the HLA-C*14:03-transfected line was higher than that on the HLA-C*14:02 line (the ratio of relative expression of HLA-C*14:03 to that of HLA-C*14:02 was approximately 1.3:1) (Fig. 4A). […] We further analyzed cross-recognition of .221-C1402 and .221-C1403 cells prepulsed with peptides at a range of different concentrations by T cells from HLA-C*14:02^+ and HLA-C*14:03^+ individuals.
FIG 4 HLA-C*14:02- and HLA-C*14:03-restricted T cell responses to 6 putative epitope peptides. (A) Histogram plots showing surface expression of HLA-C*14:02 or HLA-C*14:03 on .221-C14:02 or .221-C14:03 cells. The relative expression level of HLA-C*14:02 versus HLA-C*14:03 [(MFI of .221-C1402 stained with DT9 − MFI of .221-C1402 stained with the second antibody)/(MFI of .221-C1403 stained with DT9 − MFI of .221-C1403 stained with the second antibody)] is 1.3. (B and C) Gag LY9-, Gag AM9-, Pol KM9-, Nef YT9-, Nef IF8-, and Nef AL9-specific bulk T cell populations were expanded by stimulating responders’ PBMCs with each peptide. The ability of these peptide-specific bulk T cells to recognize peptide-pulsed .221 cells expressing HLA-C*14 molecules was then analyzed by ICS assay. (B) T cell recognition of .221 cells expressing the patient’s autologous HLA-C*14 allele and non-HLA-C*14-expressing cells pulsed with 1 μM peptide. (C) T cell recognition of HLA-C*14:02 or HLA-C*14:03-expressing cells pulsed with the indicated peptides at concentrations from 0.01 to 10 nM was analyzed by an ICS assay. The results are means and SDs from triplicate assays.
PBMCs from HIV-1-infected individuals were stimulated with 1 μM concentrations of the corresponding peptides and then cultured for 2 weeks in RPMI 1640 medium (Thermo Fisher) containing 10% FCS, 20 ng/mL of human recombinant interleukin 2 (rIL-2) (ProSpec), 1× minimal essential medium (MEM) nonessential amino acid solution (Gibco), and 1 mM sodium pyruvate solution (Gibco). Following T cell expansion, .221-C1402 cells or .221-C1403 cells prepulsed with each HIV-1 peptide or .221-C1402 cells or .221-C1403 cells infected with HIV-1 NL4-3 were added to a 96-well plate together with bulk-cultured T cells, and the cells were incubated for 4 h at 37°C with brefeldin A ([…]). The cells were then stained with Pacific blue (PB)-labeled anti-CD3 MAb (BioLegend), FITC-labeled anti-CD19 MAb (BioLegend), allophycocyanin (APC)-labeled anti-CD8 MAb (BioLegend), and a LIVE/DEAD fixable near-infrared (IR) dead-cell staining kit (Invitrogen) and subsequently fixed with 4% paraformaldehyde and incubated in permeabilization buffer (0.1% saponin–5% FBS–PBS). Thereafter, the cells were stained with phycoerythrin (PE)-labeled anti-IFN-γ MAb (BioLegend). Staining data were acquired on a FACSCanto II instrument (BD Biosciences) and analyzed using FlowJo 10.7.1 software.
On to AFHHVAREL [Nef AL9], for which the “recognition of peptide-pulsed .221 cells by peptide-specific bulk T cells” value (shortened to “recognition of peptide-pulsed .221 cells”) is “recognized the epitope peptide-pulsed .221 cells expressing their autologous HLA-C*14 allele”.

Regarding AFSPEVIPM [Gag AM9], the “recognition of peptide-pulsed .221 cells” value was “recognized the epitope peptide-pulsed .221 cells expressing their autologous HLA-C*14 allele”.

IYHTQGYF [Nef IF8]: the “recognition of peptide-pulsed .221 cells” value is “recognized the epitope peptide-pulsed .221 cells expressing their autologous HLA-C*14 allele”.

As to KYHSNWRAM [Pol KM9], the “recognition of peptide-pulsed .221 cells” value is reported as “recognized the epitope peptide-pulsed .221 cells expressing their autologous HLA-C*14 allele”.

On to LYNTIAVLY [Gag LY9], for which the “recognition of peptide-pulsed .221 cells” value is reported as “recognized the epitope peptide-pulsed .221 cells expressing their autologous HLA-C*14 allele”.

As for YFPDWQNYT [Nef YT9], the “recognition of peptide-pulsed .221 cells” value is recorded as “recognized the epitope peptide-pulsed .221 cells expressing their autologous HLA-C*14 allele”.
